From ChEMBL document CHEMBL1145498, “A systematic interaction map of validated kinase inhibitors with Ser/Thr kinases” (Proc Natl Acad Sci U S A, 2007)

Key:
[1] = molecular target: Casein kinase I isoform gamma-2 (Homo sapiens) (UniProt P78368)
[2] = molecular target: Calcium/calmodulin-dependent protein kinase type 1D (Homo sapiens) (UniProt Q8IU85)
[3] = molecular target: T1, Serine/threonine-protein kinase VRK1 (Homo sapiens) (UniProt Q99986)
T1 sequence (whole entry): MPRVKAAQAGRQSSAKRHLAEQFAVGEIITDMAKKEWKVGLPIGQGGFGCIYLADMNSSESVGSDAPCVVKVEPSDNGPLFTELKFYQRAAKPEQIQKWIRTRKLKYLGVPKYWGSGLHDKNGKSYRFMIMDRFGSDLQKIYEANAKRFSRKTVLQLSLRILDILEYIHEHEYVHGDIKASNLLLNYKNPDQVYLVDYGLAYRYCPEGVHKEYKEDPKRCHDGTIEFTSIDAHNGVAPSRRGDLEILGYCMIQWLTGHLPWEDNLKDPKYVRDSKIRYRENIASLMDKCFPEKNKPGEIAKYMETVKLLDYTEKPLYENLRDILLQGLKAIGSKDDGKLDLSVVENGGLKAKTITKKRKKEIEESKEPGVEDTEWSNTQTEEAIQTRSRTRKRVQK

[4] = molecular target: Serine/threonine-protein kinase PAK 4 (Homo sapiens) (UniProt O96013)
Sequence of Serine/threonine-protein kinase PAK 4 (Homo sapiens) (O96013 whole entry, looked up): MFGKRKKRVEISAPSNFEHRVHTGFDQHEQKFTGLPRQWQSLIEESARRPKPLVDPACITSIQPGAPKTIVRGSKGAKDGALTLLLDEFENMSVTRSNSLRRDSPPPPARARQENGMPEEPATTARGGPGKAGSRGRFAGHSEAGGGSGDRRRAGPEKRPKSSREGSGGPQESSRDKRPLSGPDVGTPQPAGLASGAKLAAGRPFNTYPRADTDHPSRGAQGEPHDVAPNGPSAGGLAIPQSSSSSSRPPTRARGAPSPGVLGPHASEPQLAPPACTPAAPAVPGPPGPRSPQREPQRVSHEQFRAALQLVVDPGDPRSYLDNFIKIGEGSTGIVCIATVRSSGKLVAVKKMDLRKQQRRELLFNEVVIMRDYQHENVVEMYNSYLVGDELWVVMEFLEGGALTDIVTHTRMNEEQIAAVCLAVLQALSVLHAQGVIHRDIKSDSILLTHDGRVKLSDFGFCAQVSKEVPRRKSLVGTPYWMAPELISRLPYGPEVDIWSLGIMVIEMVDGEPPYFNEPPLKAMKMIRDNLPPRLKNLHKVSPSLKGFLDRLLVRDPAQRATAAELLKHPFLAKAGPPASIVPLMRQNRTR

[5] = molecular target: Tyrosine-protein kinase JAK1 (Homo sapiens) (UniProt P23458)
Sequence of Tyrosine-protein kinase JAK1 (Homo sapiens) (P23458 whole entry): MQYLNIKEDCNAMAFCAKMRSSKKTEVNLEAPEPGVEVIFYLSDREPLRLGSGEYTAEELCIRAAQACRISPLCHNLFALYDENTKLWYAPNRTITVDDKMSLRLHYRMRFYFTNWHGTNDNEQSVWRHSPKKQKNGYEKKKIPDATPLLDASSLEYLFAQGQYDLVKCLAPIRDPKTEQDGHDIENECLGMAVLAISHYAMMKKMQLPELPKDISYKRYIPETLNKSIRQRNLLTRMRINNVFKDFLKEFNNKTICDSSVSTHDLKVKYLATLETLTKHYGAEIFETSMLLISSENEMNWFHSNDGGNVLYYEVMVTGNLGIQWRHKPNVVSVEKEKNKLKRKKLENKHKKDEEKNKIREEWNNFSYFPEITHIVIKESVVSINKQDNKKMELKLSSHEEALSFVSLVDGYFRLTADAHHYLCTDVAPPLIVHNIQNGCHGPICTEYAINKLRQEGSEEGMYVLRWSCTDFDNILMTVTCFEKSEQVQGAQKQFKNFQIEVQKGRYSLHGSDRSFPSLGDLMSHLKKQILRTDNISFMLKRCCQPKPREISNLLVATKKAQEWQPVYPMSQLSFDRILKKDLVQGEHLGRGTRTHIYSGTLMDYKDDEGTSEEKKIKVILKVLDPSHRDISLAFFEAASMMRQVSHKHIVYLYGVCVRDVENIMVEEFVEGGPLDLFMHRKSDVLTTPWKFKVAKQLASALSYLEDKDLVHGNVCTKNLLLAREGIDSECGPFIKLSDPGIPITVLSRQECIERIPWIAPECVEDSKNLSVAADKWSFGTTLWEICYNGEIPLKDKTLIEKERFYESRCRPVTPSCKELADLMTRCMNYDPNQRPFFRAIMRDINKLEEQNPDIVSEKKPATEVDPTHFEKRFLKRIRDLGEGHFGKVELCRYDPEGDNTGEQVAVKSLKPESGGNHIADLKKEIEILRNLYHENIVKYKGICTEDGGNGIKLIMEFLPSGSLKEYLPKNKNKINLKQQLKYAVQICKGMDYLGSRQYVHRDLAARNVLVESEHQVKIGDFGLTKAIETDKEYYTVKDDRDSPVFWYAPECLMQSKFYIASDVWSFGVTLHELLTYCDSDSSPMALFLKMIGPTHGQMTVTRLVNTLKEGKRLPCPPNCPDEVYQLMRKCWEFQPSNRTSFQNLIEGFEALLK

[6] = molecular target: T2, Mitogen-activated protein kinase kinase kinase 5 (Homo sapiens) (UniProt Q99683)
T2 sequence (whole entry): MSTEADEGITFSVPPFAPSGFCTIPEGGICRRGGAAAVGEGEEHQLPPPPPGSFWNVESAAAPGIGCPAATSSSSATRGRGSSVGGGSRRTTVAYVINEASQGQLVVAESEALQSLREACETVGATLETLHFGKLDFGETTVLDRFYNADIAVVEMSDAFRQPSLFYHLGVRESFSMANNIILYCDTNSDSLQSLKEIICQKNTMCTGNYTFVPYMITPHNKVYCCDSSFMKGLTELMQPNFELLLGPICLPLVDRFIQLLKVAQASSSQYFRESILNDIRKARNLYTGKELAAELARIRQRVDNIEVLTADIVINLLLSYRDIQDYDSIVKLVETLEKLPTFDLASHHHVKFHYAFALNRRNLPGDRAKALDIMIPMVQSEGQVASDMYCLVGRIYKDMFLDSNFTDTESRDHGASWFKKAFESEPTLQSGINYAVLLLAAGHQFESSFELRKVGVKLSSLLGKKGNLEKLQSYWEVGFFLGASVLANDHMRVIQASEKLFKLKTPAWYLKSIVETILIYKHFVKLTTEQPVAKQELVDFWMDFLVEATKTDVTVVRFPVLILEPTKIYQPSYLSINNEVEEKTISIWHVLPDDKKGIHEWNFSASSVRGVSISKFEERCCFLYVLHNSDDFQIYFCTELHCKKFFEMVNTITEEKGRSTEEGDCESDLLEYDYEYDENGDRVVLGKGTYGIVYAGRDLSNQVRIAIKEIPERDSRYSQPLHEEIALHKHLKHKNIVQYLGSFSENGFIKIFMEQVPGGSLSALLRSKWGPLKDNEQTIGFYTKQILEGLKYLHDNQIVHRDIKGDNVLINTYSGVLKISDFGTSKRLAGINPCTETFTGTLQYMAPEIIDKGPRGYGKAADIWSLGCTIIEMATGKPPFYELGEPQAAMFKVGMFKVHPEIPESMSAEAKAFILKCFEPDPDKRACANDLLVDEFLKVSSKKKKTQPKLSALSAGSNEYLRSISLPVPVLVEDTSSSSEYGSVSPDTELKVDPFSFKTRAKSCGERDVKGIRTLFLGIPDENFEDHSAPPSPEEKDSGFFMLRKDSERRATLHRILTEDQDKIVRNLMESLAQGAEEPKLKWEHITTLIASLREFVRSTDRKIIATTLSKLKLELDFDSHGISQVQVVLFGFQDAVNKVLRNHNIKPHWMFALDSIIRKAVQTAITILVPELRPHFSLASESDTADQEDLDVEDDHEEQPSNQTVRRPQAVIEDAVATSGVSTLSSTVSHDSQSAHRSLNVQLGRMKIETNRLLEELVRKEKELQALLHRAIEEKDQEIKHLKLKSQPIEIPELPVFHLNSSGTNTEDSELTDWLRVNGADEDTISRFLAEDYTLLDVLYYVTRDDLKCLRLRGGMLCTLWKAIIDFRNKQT

[7] = molecular target: Ribosomal protein S6 kinase alpha-3 (Homo sapiens) (UniProt P51812)
Sequence of Ribosomal protein S6 kinase alpha-3 (Homo sapiens) (P51812 whole entry): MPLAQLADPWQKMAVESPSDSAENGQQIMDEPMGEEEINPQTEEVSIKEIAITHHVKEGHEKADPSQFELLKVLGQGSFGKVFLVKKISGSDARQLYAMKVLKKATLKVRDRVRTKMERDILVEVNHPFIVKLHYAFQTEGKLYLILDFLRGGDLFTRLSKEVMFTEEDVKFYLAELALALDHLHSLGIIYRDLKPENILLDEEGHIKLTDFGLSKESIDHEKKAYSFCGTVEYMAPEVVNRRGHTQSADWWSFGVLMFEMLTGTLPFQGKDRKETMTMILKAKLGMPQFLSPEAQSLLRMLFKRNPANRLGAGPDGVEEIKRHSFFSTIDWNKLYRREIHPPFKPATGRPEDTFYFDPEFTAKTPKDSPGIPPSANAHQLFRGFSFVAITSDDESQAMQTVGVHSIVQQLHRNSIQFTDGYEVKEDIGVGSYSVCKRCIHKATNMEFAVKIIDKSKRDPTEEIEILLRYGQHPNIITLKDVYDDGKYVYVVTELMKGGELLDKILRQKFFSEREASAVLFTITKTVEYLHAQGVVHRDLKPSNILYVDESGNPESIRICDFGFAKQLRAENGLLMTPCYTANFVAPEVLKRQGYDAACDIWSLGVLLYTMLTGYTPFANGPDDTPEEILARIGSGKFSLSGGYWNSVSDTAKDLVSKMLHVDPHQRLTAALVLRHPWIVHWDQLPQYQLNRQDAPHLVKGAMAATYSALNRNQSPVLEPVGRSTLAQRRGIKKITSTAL

[8] = molecular target: Mitogen-activated protein kinase 3 (Homo sapiens, UniProt P27361)
Sequence of Mitogen-activated protein kinase 3 (P27361 whole entry): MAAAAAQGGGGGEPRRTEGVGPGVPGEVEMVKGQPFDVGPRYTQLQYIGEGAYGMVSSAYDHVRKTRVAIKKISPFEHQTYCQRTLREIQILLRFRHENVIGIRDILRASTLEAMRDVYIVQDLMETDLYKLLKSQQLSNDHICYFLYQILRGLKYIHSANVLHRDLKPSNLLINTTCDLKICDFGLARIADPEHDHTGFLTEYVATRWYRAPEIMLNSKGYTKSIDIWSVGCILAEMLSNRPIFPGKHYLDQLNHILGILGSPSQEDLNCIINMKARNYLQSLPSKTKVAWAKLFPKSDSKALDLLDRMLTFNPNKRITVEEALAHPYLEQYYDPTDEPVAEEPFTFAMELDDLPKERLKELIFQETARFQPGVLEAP

[9] = molecular target: Serine/threonine-protein kinase pim-1 (Homo sapiens) (UniProt P11309)
[10] = molecular target: Cyclin-dependent kinase 6 (Homo sapiens) (UniProt Q00534)
[11] = molecular target: Serine/threonine-protein kinase VRK2 (Homo sapiens) (UniProt Q86Y07)
[12] = molecular target: Serine/threonine-protein kinase PAK 5 (Homo sapiens) (UniProt Q9P286)
[13] = molecular target: Mitogen-activated protein kinase 6 (Homo sapiens) (UniProt Q16659)
Sequence of Mitogen-activated protein kinase 6 (Homo sapiens) (Q16659 whole entry): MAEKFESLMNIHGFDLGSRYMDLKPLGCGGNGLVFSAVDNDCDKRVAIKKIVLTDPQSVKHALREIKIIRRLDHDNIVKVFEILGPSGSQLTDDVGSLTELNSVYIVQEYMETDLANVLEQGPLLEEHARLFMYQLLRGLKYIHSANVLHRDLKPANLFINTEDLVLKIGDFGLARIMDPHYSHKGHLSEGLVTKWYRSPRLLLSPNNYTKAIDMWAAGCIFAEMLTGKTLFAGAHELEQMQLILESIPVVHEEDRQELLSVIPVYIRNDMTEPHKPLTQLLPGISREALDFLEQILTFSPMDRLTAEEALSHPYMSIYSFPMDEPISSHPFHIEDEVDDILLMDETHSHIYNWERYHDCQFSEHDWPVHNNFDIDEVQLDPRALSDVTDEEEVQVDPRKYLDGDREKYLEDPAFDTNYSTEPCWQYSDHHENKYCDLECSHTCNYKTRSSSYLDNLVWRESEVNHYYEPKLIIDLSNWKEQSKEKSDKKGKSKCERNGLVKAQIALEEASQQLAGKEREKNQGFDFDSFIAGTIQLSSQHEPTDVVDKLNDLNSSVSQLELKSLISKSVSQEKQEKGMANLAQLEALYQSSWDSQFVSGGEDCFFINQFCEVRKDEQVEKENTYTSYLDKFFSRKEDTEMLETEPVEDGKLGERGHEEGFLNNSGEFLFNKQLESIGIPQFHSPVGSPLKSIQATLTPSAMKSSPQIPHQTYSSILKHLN

[14] = molecular target: Serine/threonine-protein kinase 10 (Homo sapiens) (UniProt O94804)
[15] = molecular target: Cyclin-dependent kinase 16 (Homo sapiens) (UniProt Q00536)
Sequence of Cyclin-dependent kinase 16 (Homo sapiens) (Q00536 whole entry): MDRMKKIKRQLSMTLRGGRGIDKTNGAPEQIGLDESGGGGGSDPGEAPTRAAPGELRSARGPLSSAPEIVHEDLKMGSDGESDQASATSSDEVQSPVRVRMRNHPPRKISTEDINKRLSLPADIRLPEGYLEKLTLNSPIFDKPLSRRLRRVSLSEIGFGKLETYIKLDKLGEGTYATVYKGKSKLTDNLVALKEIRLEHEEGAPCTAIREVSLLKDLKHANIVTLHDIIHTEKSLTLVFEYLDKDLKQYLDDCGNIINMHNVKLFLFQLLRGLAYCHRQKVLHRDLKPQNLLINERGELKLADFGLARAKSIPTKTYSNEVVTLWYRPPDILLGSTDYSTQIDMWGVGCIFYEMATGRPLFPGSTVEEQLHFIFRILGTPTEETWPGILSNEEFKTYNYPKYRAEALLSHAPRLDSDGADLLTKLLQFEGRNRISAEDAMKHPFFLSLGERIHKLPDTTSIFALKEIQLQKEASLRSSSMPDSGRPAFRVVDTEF

[16] = molecular target: Dual specificity protein kinase CLK1 (Homo sapiens) (UniProt P49759)
[17] = molecular target: Serine/threonine-protein kinase OSR1 (Homo sapiens) (UniProt O95747)
[18] = molecular target: Calcium/calmodulin-dependent protein kinase type II subunit beta (Homo sapiens) (UniProt Q13554)
Sequence of Calcium/calmodulin-dependent protein kinase type II subunit beta (Homo sapiens) (Q13554 whole entry): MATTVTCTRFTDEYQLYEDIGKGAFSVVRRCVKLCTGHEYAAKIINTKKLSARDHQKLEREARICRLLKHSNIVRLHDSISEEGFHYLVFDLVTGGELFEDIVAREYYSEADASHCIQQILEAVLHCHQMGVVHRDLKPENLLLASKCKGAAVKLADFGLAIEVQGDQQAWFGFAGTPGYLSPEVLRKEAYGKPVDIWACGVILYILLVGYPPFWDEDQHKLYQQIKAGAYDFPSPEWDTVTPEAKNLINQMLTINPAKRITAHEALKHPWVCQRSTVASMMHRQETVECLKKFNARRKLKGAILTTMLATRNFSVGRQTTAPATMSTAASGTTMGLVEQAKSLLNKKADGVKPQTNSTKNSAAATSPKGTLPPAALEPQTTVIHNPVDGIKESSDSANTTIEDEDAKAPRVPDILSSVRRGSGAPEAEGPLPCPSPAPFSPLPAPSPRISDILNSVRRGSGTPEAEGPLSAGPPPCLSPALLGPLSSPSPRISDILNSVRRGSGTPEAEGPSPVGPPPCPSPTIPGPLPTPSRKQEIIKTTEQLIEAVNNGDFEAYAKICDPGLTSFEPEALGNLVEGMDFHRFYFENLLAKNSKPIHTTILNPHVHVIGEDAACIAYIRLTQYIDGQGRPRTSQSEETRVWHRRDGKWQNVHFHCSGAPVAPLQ

SMILES	ΔTm [1]	ΔTm [2]	ΔTm [3]	ΔTm [4]	ΔTm [5]	ΔTm [6]	ΔTm [7]	ΔTm [8]	ΔTm [9]	ΔTm [10]	ΔTm [11]	ΔTm [12]	ΔTm [13]	ΔTm [14]	ΔTm [15]	ΔTm [16]	ΔTm [17]	ΔTm [18]
CC(=O)O/N=C1/C(=C2/C(=O)Nc3cc(Br)ccc32)Nc2ccccc21 [6-BROMOINDIRUBIN-3'-ACETOXIME]	0.5 °C	-1.4 °C	0.3 °C	2.2 °C	2.5 °C	-0.2 °C	4.5 °C	0 °C	-0.2 °C	2.8 °C	0.6 °C	0.9 °C	0.3 °C	0 °C	2.1 °C	-0.3 °C	-1.1 °C	0.9 °C
CC(C)(C)n1nc(-c2ccc(Cl)cc2)c2c(N)ncnc21	0.8 °C	-0.2 °C	0 °C	1 °C	0.3 °C	0.3 °C	0.4 °C	0 °C	0.1 °C	-0.4 °C	0.3 °C	0.7 °C	-0.2 °C	4.7 °C	-0.5 °C	2.1 °C	1.2 °C	0.2 °C
C/C(O)=C(\C#N)C(=O)Nc1cc(Br)ccc1Br	0.4 °C	0.3 °C	0 °C	-0.3 °C	0.7 °C	-0.7 °C	0.2 °C	0.3 °C	1.4 °C	0.2 °C	0.1 °C	0.4 °C	0.4 °C	0.9 °C	-1.1 °C	0.5 °C	1.1 °C	0 °C
CCCCc1c(-c2ccc(O)cc2)[nH]c2nccnc12 [ALOISINE A]	2.2 °C	1.2 °C	-0.2 °C	2.6 °C	0.5 °C	0.4 °C	1.9 °C	0.5 °C	1.7 °C	1.3 °C	4.2 °C	2.2 °C	3 °C	5 °C	-0.5 °C	3.5 °C	1.6 °C	0.5 °C
COc1cc(/C=C/C(=O)CC(=O)/C=C/c2ccc(O)c(OC)c2)ccc1O [CURCUMIN]	2.3 °C	2 °C	1 °C	3 °C	4.1 °C	3.1 °C	3 °C	0.8 °C	2.5 °C	2.1 °C	1.4 °C	1.3 °C	1.8 °C	6.1 °C	0.7 °C	7.9 °C	3.7 °C	1 °C
c1ccc(-c2n[nH]c3c2oc2ccccc23)cc1	1 °C	0.6 °C	1 °C	-0.3 °C	5.2 °C	1.4 °C	1.1 °C	0.3 °C	-0.5 °C	0.6 °C	0.6 °C	0.3 °C	0.1 °C	1.9 °C	-0.2 °C	1.8 °C	0.8 °C	0.6 °C
COc1ccc(CNc2nc(N(CCO)CCO)nc3c2ncn3C(C)C)cc1	1.6 °C	0.3 °C	0.7 °C	1.7 °C	0.2 °C	2 °C	1.7 °C	0.2 °C	-1 °C	-0.1 °C	1.4 °C	1.1 °C	-0.4 °C	0.7 °C	-0.3 °C	2.4 °C	0.4 °C	0.3 °C
Cc1c2ccncc2c(C)c2c1[nH]c1ccccc12 [ELLIPTECINE]	0.2 °C	1.2 °C	0.4 °C	0.7 °C	2.3 °C	0.4 °C	1.8 °C	0.3 °C	4.8 °C	0.2 °C	-0.7 °C	0.9 °C	1.5 °C	1.9 °C	-0.4 °C	6.6 °C	0.3 °C	1 °C
